Experimental data published in ChEMBL document CHEMBL1201862, “PubChem BioAssay data set” (2004).
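A five-concentration, 48-hour dose response in 96-well plates underlies each endpoint, interpolated linearly between surrounding concentrations. GI50: concentration for 50% inhibition of growth.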 Activity calls are given as the source filed them. Rule as the data show it: active = GI50 up to about 1.1 µM and inactive = higher.

How the values were obtained:
Assay in all cases: growth of human tumour cells (NCI), 48 h
[1] = test system: SK-MEL-28
[2] = test system: MCF7
[3] = test system: MDA-MB-231
[4] = test system: UACC-62
[5] = test system: HOP-92
[6] = test system: OVCAR-3
[7] = test system: SK-MEL-5
[8] = test system: SNB-19
[9] = test system: MDA-N
[10] = test system: A549
[11] = test system: SN12C
[12] = test system: CCRF-CEM
[13] = test system: IGROV-1
[14] = test system: EKVX
[15] = test system: NCI-H522
[16] = test system: HT-29
[17] = test system: NCI/ADR-RES
[18] = test system: ACHN
[19] = test system: K562
[20] = test system: SF-539
[21] = test system: HL-60
[22] = test system: U-251
[23] = test system: 786-0
[24] = test system: SR
[25] = test system: TK-10
[26] = test system: HOP-62
[27] = test system: NCI-H460
[28] = test system: NCI-H23
[29] = test system: SK-MEL-2
[30] = test system: RXF 393
[31] = test system: T47D
[32] = test system: SNB-75
[33] = test system: A498
[34] = test system: SF-268
[35] = test system: HCT-15
[36] = test system: Malme-3M
[37] = test system: DU-145
[38] = test system: HCT-116
[39] = test system: NCI-H226
[40] = test system: Hs-578T
[41] = test system: HCC 2998
[42] = test system: SW-620
[43] = test system: M14
[44] = test system: LOX IMVI
[45] = test system: OVCAR-8
[46] = test system: SF-295
[47] = test system: COLO 205
[48] = test system: MOLT-4
[49] = test system: CAKI-1
[50] = test system: OVCAR-4
[51] = test system: MDA-MB-435
[52] = test system: UACC-257
[53] = test system: OVCAR-5
[54] = test system: RPMI-8226
[55] = test system: PC-3
[56] = test system: KM12
[57] = test system: BT-549
[58] = test system: UO-31
[59] = test system: SK-OV-3

**Q.** What does the source list for `O=C(CCCN1CCC2(CC1)/C(=N/C1CCCCC1)NC(=O)N2c1ccccc1)c1ccc(F)cc1`?
**A.** GI50 [1]: 18.6 µM (inactive); GI50 [2]: 14.1 µM (inactive); GI50 [3]: 12.4 µM (inactive); GI50 [4]: 22.3 µM (inactive); GI50 [5]: 17.1 µM (inactive); GI50 [6]: 11.6 µM (inactive); GI50 [7]: 23.1 µM (inactive); GI50 [8]: > 100 µM (inactive); GI50 [9]: 18.2 µM (inactive); GI50 [10]: 44.4 µM (inactive); GI50 [11]: 18.4 µM (inactive); GI50 [12]: 23.4 µM (inactive); GI50 [13]: 26.7 µM (inactive); GI50 [14]: 29.8 µM (inactive); GI50 [15]: 24.7 µM (inactive); GI50 [16]: 17.9 µM (inactive); GI50 [17]: 19.2 µM (inactive); GI50 [18]: 31.7 µM (inactive); GI50 [19]: 29.8 µM (inactive); GI50 [20]: 18.8 µM (inactive); GI50 [21]: 23.1 µM (inactive); GI50 [22]: 33.1 µM (inactive); GI50 [23]: 20.8 µM (inactive); GI50 [24]: 16.7 µM (inactive); GI50 [25]: 22.5 µM (inactive); GI50 [26]: 20.9 µM (inactive); GI50 [27]: 22.7 µM (inactive); GI50 [28]: 21.3 µM (inactive); GI50 [29]: 17.7 µM (inactive); GI50 [30]: 39.5 µM (inactive); GI50 [31]: 29.9 µM (inactive); GI50 [32]: 17.2 µM (inactive); GI50 [33]: 15.2 µM (inactive); GI50 [34]: 19 µM (inactive); GI50 [35]: 28.3 µM; GI50 [36]: 12.7 µM (inactive); GI50 [37]: 41.2 µM (inactive); GI50 [38]: 21.3 µM (inactive); GI50 [39]: 14.9 µM (inactive); GI50 [40]: 33.4 µM (inactive); GI50 [41]: 20.6 µM (inactive); GI50 [42]: > 100 µM (inactive); GI50 [43]: 17.6 µM (inactive); GI50 [44]: 14.2 µM (inactive); GI50 [45]: 28.4 µM (inactive); GI50 [46]: 19.5 µM (inactive); GI50 [47]: 16.1 µM (inactive); GI50 [48]: 21.9 µM (inactive); GI50 [49]: > 100 µM (inactive); GI50 [50]: 31.7 µM (inactive); GI50 [51]: 20.1 µM (inactive); GI50 [52]: 21.5 µM (inactive); GI50 [53]: 20.9 µM (inactive); GI50 [54]: 20.9 µM (inactive); GI50 [55]: 21.6 µM (inactive); GI50 [56]: 19.8 µM (inactive)

**Q.** For `CCCCCCCCCCCCC/C=C/[C@H]1[C@@H](C(=O)OC)N1[S+]([O-])c1ccc(C)cc1` (stereo partly drawn), which GI50 [1] is on record?
**A.** Its GI50 is > 100 µM (inactive).

**Q.** And the GI50 [4]?
**A.** Its GI50 is > 100 µM (inactive).

**Q.** What about the GI50 [5] of the same compound?
**A.** Its GI50 is > 100 µM (inactive).

**Q.** What about the GI50 [6] of the same compound?
**A.** Its GI50 is > 100 µM (inactive).

**Q.** And the GI50 [7]?
**A.** Its GI50 is 35.8 µM (inactive).

**Q.** And the GI50 [12]?
**A.** Its GI50 is 52.5 µM (inactive).

**Q.** And the GI50 [13]?
**A.** The GI50 was > 100 µM (inactive).

**Q.** What about the GI50 [14] of the same compound?
**A.** Its GI50 is 88.3 µM (inactive).

**Q.** And the GI50 [15]?
**A.** Its GI50 is 71.4 µM (inactive).

**Q.** And the GI50 [18]?
**A.** The GI50 was > 100 µM (inactive).

**Q.** And the GI50 [19]?
**A.** Its GI50 is 31.3 µM (inactive).

**Q.** And the GI50 [21]?
**A.** Its GI50 is 21.2 µM (inactive).

**Q.** And the GI50 [22]?
**A.** Its GI50 is > 100 µM (inactive).

**Q.** And the GI50 [23]?
**A.** Its GI50 is > 100 µM (inactive).

**Q.** And the GI50 [24]?
**A.** Its GI50 is 21.3 µM (inactive).

**Q.** And the GI50 [25]?
**A.** Its GI50 is > 100 µM (inactive).

**Q.** What about the GI50 [26] of the same compound?
**A.** The GI50 was > 100 µM (inactive).

**Q.** And the GI50 [28]?
**A.** Its GI50 is > 100 µM (inactive).

**Q.** What about the GI50 [57] of the same compound?
**A.** The GI50 was > 100 µM (inactive).

**Q.** What about the GI50 [29] of the same compound?
**A.** Its GI50 is > 100 µM (inactive).

**Q.** What about the GI50 [31] of the same compound?
**A.** Its GI50 is 22.9 µM (inactive).

**Q.** And the GI50 [33]?
**A.** Its GI50 is > 100 µM (inactive).

**Q.** What about the GI50 [58] of the same compound?
**A.** The GI50 was > 100 µM (inactive).

**Q.** And the GI50 [36]?
**A.** The GI50 was > 100 µM (inactive).

**Q.** What about the GI50 [37] of the same compound?
**A.** The GI50 was > 100 µM (inactive).

**Q.** And the GI50 [38]?
**A.** The GI50 was > 100 µM (inactive).

**Q.** And the GI50 [42]?
**A.** Its GI50 is > 100 µM (inactive).

**Q.** And the GI50 [44]?
**A.** Its GI50 is > 100 µM (inactive).

**Q.** And the GI50 [47]?
**A.** Its GI50 is > 100 µM (inactive).

**Q.** And the GI50 [48]?
**A.** The GI50 was 87.5 µM (inactive).

**Q.** What about the GI50 [51] of the same compound?
**A.** The GI50 was > 100 µM (inactive).

**Q.** And the GI50 [52]?
**A.** The GI50 was 36.3 µM (inactive).

**Q.** And the GI50 [54]?
**A.** Its GI50 is 12.1 µM (inactive).

**Q.** What about the GI50 [55] of the same compound?
**A.** The GI50 was > 100 µM (inactive).

**Q.** Which results are given for `CC(=O)c1sc2c(c1OC(=O)c1ccc(Cl)cc1Cl)c(=O)n(-c1ccccc1)c(=S)n2-c1ccccc1`?
**A.** GI50 [1]: 0.475 µM (active); GI50 [2]: 8.55 µM (inactive); GI50 [3]: 0.861 µM (active); GI50 [4]: 10.8 µM (inactive); GI50 [5]: 0.78 µM (active); GI50 [6]: 4.14 µM (inactive); GI50 [7]: 1.8 µM (inactive); GI50 [8]: 0.673 µM (active); GI50 [9]: 0.741 µM (active); GI50 [10]: 9.98 µM (inactive); GI50 [11]: 0.369 µM (active); GI50 [12]: 0.26 µM (active); GI50 [13]: 5.51 µM (inactive); GI50 [14]: 6.55 µM (inactive); GI50 [15]: 1.2 µM (inactive); GI50 [16]: 0.28 µM (active); GI50 [17]: 1.05 µM (active); GI50 [18]: 0.321 µM (active); GI50 [19]: 4.32 µM (inactive); GI50 [20]: 0.251 µM (active); GI50 [21]: 3.81 µM (inactive); GI50 [22]: 0.342 µM (active); GI50 [23]: 0.47 µM (active); GI50 [24]: 0.501 µM (active); GI50 [25]: 4.57 µM (inactive); GI50 [26]: 1.41 µM (inactive); GI50 [27]: 1.99 µM (inactive); GI50 [28]: 5.83 µM (inactive); GI50 [29]: 0.264 µM (active); GI50 [30]: 0.382 µM (active); GI50 [31]: 9.27 µM (inactive); GI50 [59]: 0.3 µM (active); GI50 [32]: 0.472 µM (active); GI50 [33]: 0.286 µM (active); GI50 [34]: 0.552 µM (active); GI50 [58]: 0.347 µM (active); GI50 [35]: 2.18 µM; GI50 [36]: 0.252 µM (active); GI50 [37]: 21.7 µM (inactive); GI50 [38]: 2.96 µM (inactive); GI50 [39]: 0.258 µM (active); GI50 [40]: 0.1 µM (active); GI50 [41]: 6.37 µM (inactive); GI50 [42]: 3.97 µM (inactive); GI50 [43]: 0.303 µM (active); GI50 [44]: 0.321 µM (active); GI50 [45]: 0.418 µM (active); GI50 [46]: 0.267 µM (active); GI50 [47]: 1.07 µM (active); GI50 [48]: 0.14 µM (active); GI50 [49]: 1.43 µM (inactive); GI50 [50]: 13.2 µM (inactive); GI50 [51]: 1 µM (active); GI50 [52]: 3.88 µM (inactive); GI50 [53]: 0.64 µM (active); GI50 [54]: 0.213 µM (active); GI50 [55]: 0.608 µM (active); GI50 [56]: 4.14 µM (inactive)
